The results in this text go back to patent EP4385980A1, “INDAZOLES AS INHIBITORS OF NAV1.8” (Grünenthal GmbH, priority 2022, dated 2024).

T1 sequence (Q9Y5Y9 whole entry): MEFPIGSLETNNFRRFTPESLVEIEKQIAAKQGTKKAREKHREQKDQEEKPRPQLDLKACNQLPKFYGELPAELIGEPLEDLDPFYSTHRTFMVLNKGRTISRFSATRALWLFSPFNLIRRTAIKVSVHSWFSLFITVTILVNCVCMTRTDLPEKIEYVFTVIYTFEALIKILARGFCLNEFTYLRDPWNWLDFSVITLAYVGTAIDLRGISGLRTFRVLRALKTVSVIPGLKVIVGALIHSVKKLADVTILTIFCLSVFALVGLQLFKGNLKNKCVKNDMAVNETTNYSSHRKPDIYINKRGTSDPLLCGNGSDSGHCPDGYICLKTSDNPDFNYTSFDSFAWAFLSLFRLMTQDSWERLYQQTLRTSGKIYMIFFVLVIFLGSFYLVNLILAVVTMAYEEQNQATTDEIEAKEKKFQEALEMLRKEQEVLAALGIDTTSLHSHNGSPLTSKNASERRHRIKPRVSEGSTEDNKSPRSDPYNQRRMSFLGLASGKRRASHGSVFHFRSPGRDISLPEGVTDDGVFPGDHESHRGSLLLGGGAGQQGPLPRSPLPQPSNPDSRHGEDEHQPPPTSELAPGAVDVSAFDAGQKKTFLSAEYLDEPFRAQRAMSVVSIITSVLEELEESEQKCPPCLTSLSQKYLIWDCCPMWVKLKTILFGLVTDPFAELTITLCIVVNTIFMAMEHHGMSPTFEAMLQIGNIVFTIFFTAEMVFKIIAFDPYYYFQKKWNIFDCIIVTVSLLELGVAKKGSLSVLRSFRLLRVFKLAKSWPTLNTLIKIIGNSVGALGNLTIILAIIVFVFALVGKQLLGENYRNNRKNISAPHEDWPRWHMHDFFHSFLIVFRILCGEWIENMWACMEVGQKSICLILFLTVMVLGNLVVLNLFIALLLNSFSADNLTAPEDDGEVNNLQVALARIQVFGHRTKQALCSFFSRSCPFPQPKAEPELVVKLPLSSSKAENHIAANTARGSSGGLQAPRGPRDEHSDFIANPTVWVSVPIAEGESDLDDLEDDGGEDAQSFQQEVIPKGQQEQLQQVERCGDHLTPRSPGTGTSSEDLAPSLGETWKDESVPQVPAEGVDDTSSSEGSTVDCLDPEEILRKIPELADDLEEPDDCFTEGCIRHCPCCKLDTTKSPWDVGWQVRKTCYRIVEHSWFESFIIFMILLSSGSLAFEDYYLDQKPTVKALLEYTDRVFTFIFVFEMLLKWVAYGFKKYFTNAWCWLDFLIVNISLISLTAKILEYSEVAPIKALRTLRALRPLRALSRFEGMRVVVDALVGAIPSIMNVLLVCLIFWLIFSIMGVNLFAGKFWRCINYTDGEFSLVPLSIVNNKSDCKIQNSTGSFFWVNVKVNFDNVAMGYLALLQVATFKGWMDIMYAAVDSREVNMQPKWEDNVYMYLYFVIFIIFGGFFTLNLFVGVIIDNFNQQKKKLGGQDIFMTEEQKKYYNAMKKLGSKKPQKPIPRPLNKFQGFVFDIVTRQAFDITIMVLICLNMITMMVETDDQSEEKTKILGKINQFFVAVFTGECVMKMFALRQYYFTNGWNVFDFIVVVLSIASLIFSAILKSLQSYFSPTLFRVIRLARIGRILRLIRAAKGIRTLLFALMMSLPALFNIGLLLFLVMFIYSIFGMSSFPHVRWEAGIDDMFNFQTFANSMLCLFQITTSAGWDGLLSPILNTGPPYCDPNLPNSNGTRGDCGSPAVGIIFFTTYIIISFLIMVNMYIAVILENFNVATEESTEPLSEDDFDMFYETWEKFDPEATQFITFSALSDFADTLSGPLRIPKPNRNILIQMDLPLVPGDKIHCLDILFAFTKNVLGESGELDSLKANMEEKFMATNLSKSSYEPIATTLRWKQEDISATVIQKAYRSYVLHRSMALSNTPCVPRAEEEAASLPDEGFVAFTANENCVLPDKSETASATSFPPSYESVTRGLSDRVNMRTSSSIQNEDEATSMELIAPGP
T1 sequence (Q9NY72 23-215 partner): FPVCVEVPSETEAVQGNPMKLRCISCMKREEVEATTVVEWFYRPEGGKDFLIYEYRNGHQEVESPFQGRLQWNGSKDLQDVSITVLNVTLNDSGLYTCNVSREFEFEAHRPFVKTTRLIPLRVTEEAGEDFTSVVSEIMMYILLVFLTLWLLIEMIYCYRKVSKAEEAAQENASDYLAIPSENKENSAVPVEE

This experiment addresses T1, human NaV1.8 (Homo sapiens, UniProt Q9Y5Y9).
T1 construct: expressed in transfected cells; host or cells: HEK
The experiment in a line: Electrophysiology: voltage-clamp recordings (whole-cell automated patch clamp, Qube384). The format is cell-based. The following applies: HEK-NaV1.8 with b3 recombinant cell line, ambient room temperature, read-out: Potency category (human NaV1.8 IC50). As for the experimental part:
The following NaV1.8 recombinant cell line was used for recordings: HEK-NaV1.8 (NM_006514.1) with b3 (NM_018400.3).
Sodium currents were measured using the patch clamp technique in the whole-cell configuration using the Qube384 (Sophion A/S, Copenhagen, Denmark) automated voltage clamp platform. "Multi hole" plates were used for the cell line expressing NaV1.8 while "single hole" plates were used for the recombinant cell lines expressing the other subtypes. Appropriate filters (for minimum seal resistance and minimum current size) and series resistance compensation (for high quality sodium channel recordings) were applied. Data was collected at ambient room temperature.
The recording […] solution contained (in mM): NaCl 145 mM, KCl 4 mM, CaCl2 2 mM, MgCl2 1 mM, HEPES 10 mM, Glucose 10 mM, pH 7.4 (NaOH). The […] recording solution contained (in mM): CsF 120 mM, CsCl 20 mM, NaCl 10 mM, EGTA 10 mM, HEPES 10 mM, pH 7.2 (CsOH). Currents were recorded at 25 kHz sampling frequency and filtered at 5 kHz. Series resistance compensation was applied at 65%.
Vehicle (VEH) is the control condition where cells are exposed to 0.3 % DMSO without compound. All runs include VEH controls being exposed to the same voltage protocols to assess non-compound related phenomena such as run down and then used to isolate compound dependent effects on currents.
To check for state-dependence inhibition, the following voltage-sequence was applied every 20 seconds: From a resting membrane potential of-120 mV, the first test pulse (P1; 20 ms to -10 mV) was applied to check for channels in the Resting State followed by a brief recovery (20 ms to -120 mV), then holding the membrane voltage to V1/2 (4 seconds at voltage to obtain half the channel at Rest and half Inactivated) with a subsequent second test pulse (P2; 20 ms to -10 mV) to check for channels in the Inactivated State, followed by another brief recovery (20 ms to -120 mV) and a final third test pulse (P3; 20 ms to -10 mV) to check for recovered channels.
To check for frequency-dependent inhibition, a 10 Hz protocol and a 20 Hz protocol were applied; namely,
From a resting membrane potential of -120 mV, 40-pulses (10 ms to -10 mV) was applied at 10 Hz (at 100 ms between pulses) and then at 20 Hz (at 50 ms between pulses).
Each parameter was recorded (P1, P2, P3, P40 from 10Hz and P40 from 20Hz) during a control period (lasting ~ 5 minutes) when establishing the baseline and during compound period (lasting ~ 12 minutes) when test compound (or vehicle) was applied. For each parameter, the value at the end of the compound period was normalized to the vehicle baseline; as follows Normalized Inhibition (NormCPD) = (CPD Valueend CPD period)/(VEH Valueend Control Period) [formula]
To adjust for any variance in the Na^+ current signal during the compound period (owing to cumulative inactivation independent of compound or shifts in biophysics over time), a dedicated segment of the recording wells in each 384 plate were dedicated to having only vehicle exposure. These vehicle-only recordings were used to correct for any apparent "run-up" or "run-down" in the experiment. Normalized Inhibition (NormVEH) = (VEH Valueend CPD period)/(VEH Valueend Control Period) [formula]
The adjusted inhibition was calculated as follows: % Inhibitioncorrected = 100 × (NormCPD −NormVEH)/(100−NormVEH) [formula]
Percent inhibition was determined and IC50 values were calculated using a 4 parameter logistic model within XLFit Software (IDBS, Boston MA): % Inhibitioncorrected = A + ((B−A))/((1 + (((x)/(C)))^D) [formula] where A and B are the maximal and minimum inhibition respectively, C is the IC50 concentration and D is the (Hill) slope.
A general note: Patch clamp records ionic current or voltage across a cell membrane.
Turning to `Cc1cccc2c(C(=O)Nc3cc[nH]c(=O)c3)n(CC3CCCCC3)nc12` [SC-43, 2-(cyclohexylmethyl)-7-methyl-N-(2-oxo-1,2-dihydropyridin-4-yl)-2H-indazole-3-carboxamide], the IC50 – broadly, the concentration that inhibits the measured activity by half – is no more than 0.1 µM.

Consider `CS(=O)(=O)c1cccc(NC(=O)c2c3cccc(C(F)(F)F)c3nn2CC2CCCCC2)c1` [SC-44, 2-(cyclohexylmethyl)-N-(3-methylsulfonylphenyl)-7-(trifluoromethyl)indazole-3-carboxamide], for which the IC50 is no more than 0.1 µM.

Regarding `Cc1cccc2c(C(=O)Nc3cccc(S(C)(=O)=O)c3)n(CC3CCCCC3)nc12` [SC-45, 2-(cyclohexylmethyl)-7-methyl-N-(3-methylsulfonylphenyl)indazole-3-carboxamide], the IC50 was no more than 0.1 µM.

For the compound `Cc1ccc2nn(CC3CCCCC3)c(C(=O)Nc3cccc(S(C)(=O)=O)c3)c2c1` [SC-46, 2-(cyclohexylmethyl)-5-methyl-N-(3-methylsulfonylphenyl)indazole-3-carboxamide], the IC50 fell in the range of 0.1 to 1 µM.

As to `CS(=O)(=O)c1cccc(NC(=O)c2c3c(F)cccc3nn2CC2CCCCC2)c1` [SC-47, 2-(cyclohexylmethyl)-4-fluoro-N-(3-methylsulfonylphenyl)indazole-3-carboxamide], the IC50 is no more than 0.1 µM.

`Cc1ccc2nn(CC3CCCCC3)c(C(=O)Nc3cc[nH]c(=O)c3)c2c1` [SC-48, 2-(cyclohexylmethyl)-5-methyl-N-(2-oxo-1,2-dihydropyridin-4-yl)-2H-indazole-3-carboxamide]: the IC50 lay in the range of 1 to 10 µM.

As for `O=C(Nc1ccnc(O)c1)c1c2c(F)cccc2nn1CC1CCCCC1` [SC-49, 2-(cyclohexylmethyl)-4-fluoro-N-(2-hydroxypyridin-4-yl)indazole-3-carboxamide], the IC50 was 0.1 to 1 µM.

Turning to `O=C(Nc1ccnc(O)c1)c1c2ccccc2nn1CC1CCOC1` (stereo not shown) [SC-50, N-(2-hydroxypyridin-4-yl)-2-(oxolan-3-ylmethyl)indazole-3-carboxamide], the IC50 lay within 1 to 10 µM.

Regarding `O=C(Nc1ccnc(O)c1)c1c2ccccc2nn1CC1CCCCO1` (stereo not shown) [SC-53, N-(2-hydroxypyridin-4-yl)-2-(oxan-2-ylmethyl)indazole-3-carboxamide], the IC50 lay in the range of 1 to 10 µM.

Turning to `CS(=O)(=O)c1cccc(NC(=O)c2c3ccccc3nn2CC2CCOC2)c1` (stereo not shown) [SC-56, N-(3-methylsulfonylphenyl)-2-(oxolan-3-ylmethyl)indazole-3-carboxamide], the IC50 was in the range of 1 to 10 µM.

With `CS(=O)(=O)c1cccc(NC(=O)c2c3ccccc3nn2CC2CCCCO2)c1` (stereo not shown) [SC-58, N-(3-methylsulfonylphenyl)-2-(oxan-2-ylmethyl)indazole-3-carboxamide], the IC50 was in the range of 0.1 to 1 µM.

`CS(=O)(=O)c1cccc(NC(=O)c2c3ccc(F)cc3nn2CC2CCOCC2)c1` [SC-60, 6-fluoro-N-(3-methylsulfonylphenyl)-2-(oxan-4-ylmethyl)indazole-3-carboxamide]: the IC50 was 0.1 to 1 µM.

Turning to `CS(=O)(=O)c1cccc(NC(=O)c2c3ccc(F)cc3nn2CCC2CCCC2)c1` [SC-61, 2-(2-cyclopentylethyl)-6-fluoro-N-(3-methylsulfonylphenyl)indazole-3-carboxamide], the IC50 was 0.1 to 1 µM.

Turning to `CS(=O)(=O)c1cccc(NC(=O)c2c3ccc(F)cc3nn2CC2CC(F)(F)C2)c1` [SC-62, 2-[(3,3-difluorocyclobutyl)methyl]-6-fluoro-N-(3-methylsulfonylphenyl)indazole-3-carboxamide], the IC50 was in the range of 0.1 to 1 µM.

Consider `CS(=O)(=O)c1cccc(NC(=O)c2c3ccccc3nn2CC2CCCC2)c1` [SC-67, 2-(cyclopentylmethyl)-7V-(3-methylsulfonylphenyl)indazole-3-carboxamide], for which the IC50 fell in the range of 0.1 to 1 µM.

Regarding `CC1(C)CC(Cn2nc3cc(F)ccc3c2C(=O)Nc2cccc(S(C)(=O)=O)c2)C1` [SC-68, 2-[(3,3-dimethylcyclobutyl)methyl]-6-fluoro-N-(3-methylsulfonylphenyl)indazole-3-carboxamide], the IC50 was no more than 0.1 µM.

As for `CS(=O)(=O)c1cccc(NC(=O)c2c3ccc(F)cc3nn2CC2CCC3(CC2)CC3)c1` [SC-70, 6-fluoro-N-(3-methylsulfonylphenyl)-2-(spiro[2.5]octan-6-ylmethyl)indazole-3-carboxamide], the IC50 was 1 to 10 µM.

Turning to `O=C(Nc1ccnc(O)c1)c1c2ccc(F)cc2nn1CC1CCCCO1` (stereo not shown) [SC-71, 6-fluoro-N-(2-hydroxypyridin-4-yl)-2-[[oxan-2-yl]methyl]indazole-3-carboxamide], the IC50 lay within 1 to 10 µM.

In the case of `O=C(Nc1ccnc(O)c1)c1c2ccccc2nn1CC1CCCC1` [SC-73, 2-(cyclopentylmethyl)-N-(2-hydroxypyridin-4-yl)indazole-3-carboxamide], the IC50 is 0.1 to 1 µM.

With `NC(=O)c1cccc(NC(=O)c2c3ccc(F)cc3nn2CC2CCC(F)(F)CC2)c1` [SC-76, N-(3-Carbamoylphenyl)-2-[(4,4-difluorocyclohexyl)methyl]-6-fluoro-2H-indazole-3-carboxamide], the IC50 fell in the range of 0.1 to 1 µM.

On to `CS(=O)(=O)c1cc(NC(=O)c2c3ccccc3nn2CC2CCCCC2)ccc1F` [SC-77, 2-(cyclohexylmethyl)-N-(4-fluoro-3-methylsulfonylphenyl)indazole-3-carboxamide], for which the IC50 was no more than 0.1 µM.

In the case of `Cc1cccc2c(C(=O)Nc3cccc(S(N)(=O)=O)c3)n(CC3CCC(F)(F)C3)nc12` (stereo not shown) [SC-80, 2-((3,3-difluorocyclopentyl)methyl)-7-methyl-N-(3-sulfamoylphenyl)-2H-indazole-3-carboxamide], the IC50 was no more than 0.1 µM.

For the compound `NS(=O)(=O)c1cccc(NC(=O)c2c3cccc(F)c3nn2CC2CCCC(F)(F)C2)c1` (stereo not shown) [SC-81, 2-((3,3-difluorocyclohexyl)methyl)-7-fluoro-N-(3-sulfamoylphenyl)-2H-indazole-3-carboxamide], the IC50 is no more than 0.1 µM.

On to `Cc1cccc2nn(CC3CCCCC3)c(C(=O)Nc3cccc(S(C)(=O)=O)c3)c12` [SC-83, 2-(cyclohexylmethyl)-4-methyl-N-(3-(methylsulfonyl)phenyl)-2H-indazole-3-carboxamide], for which the IC50 was no more than 0.1 µM.

For `NS(=O)(=O)c1cccc(NC(=O)c2c3cccc(C4CC4)c3nn2CC2CCOCC2)c1` [SC-85, 7-cyclopropyl-N-(3-sulfamoylphenyl)-2-((tetrahydro-2H-pyran-4-yl)methyl)-2H-indazole-3-carboxamide], the IC50 is no more than 0.1 µM.

As for `NC(=O)c1cc(NC(=O)c2c3ccc(F)cc3nn2CC2CCCCC2)ccn1` [SC-86, N-(2-carbamoylpyridin-4-yl)-2-(cyclohexylmethyl)-6-fluoro-2H-indazole-3-carboxamide], the IC50 was no more than 0.1 µM.

With `NS(=O)(=O)c1cc(NC(=O)c2c3ccc(F)cc3nn2CC2CCCCC2)ccn1` [SC-87, 2-(cyclohexylmethyl)-6-fluoro-N-(2-sulfamoylpyridin-4-yl)-2H-indazole-3-carboxamide], the IC50 is no more than 0.1 µM.

For the compound `NS(=O)(=O)c1cc(NC(=O)c2c3cccc(C(F)F)c3nn2C[C@H]2CCCCO2)ccn1` [SC-89b], the IC50 is no more than 0.1 µM.
